Data reported in the NIST ThermoML archive (doi:10.1016/j.jct.2018.01.015).
Numbers after ± are expanded uncertainties.

Settings: Gas, rotating-body viscometer for gases

## N#N [nitrogen]
253.21 K, 100.8 kPa
  viscosity: 0.01561 ± 3e-05 mPa·s
253.21 K, 200.9 kPa
  viscosity: 0.01564 ± 3e-05 mPa·s
253.21 K, 400.7 kPa
  viscosity: 0.01566 ± 3e-05 mPa·s
253.21 K, 600.8 kPa
  viscosity: 0.01571 ± 3e-05 mPa·s
253.21 K, 800.8 kPa
  viscosity: 0.01574 ± 3e-05 mPa·s
253.21 K, 1000.9 kPa
  viscosity: 0.01579 ± 3e-05 mPa·s
253.21 K, 1200.9 kPa
  viscosity: 0.01584 ± 3e-05 mPa·s
273.24 K, 100.7 kPa
  viscosity: 0.01659 ± 3e-05 mPa·s
273.24 K, 200.8 kPa
  viscosity: 0.01661 ± 3e-05 mPa·s
273.24 K, 400.5 kPa
  viscosity: 0.01664 ± 3e-05 mPa·s
273.24 K, 600.4 kPa
  viscosity: 0.01667 ± 3e-05 mPa·s
273.24 K, 800.6 kPa
  viscosity: 0.01671 ± 3e-05 mPa·s
273.24 K, 1000.6 kPa
  viscosity: 0.01674 ± 3e-05 mPa·s
273.24 K, 1499.8 kPa
  viscosity: 0.01685 ± 3e-05 mPa·s
298.24 K, 800.5 kPa
  viscosity: 0.01785 ± 2.5e-05 mPa·s
298.25 K, 99.6 kPa
  viscosity: 0.01776 ± 2.5e-05 mPa·s
298.25 K, 100.7 kPa
  viscosity: 0.01777 ± 2.5e-05 mPa·s
298.25 K, 200.5 kPa
  viscosity: 0.01778 ± 2.5e-05 mPa·s
298.25 K, 400.7 kPa
  viscosity: 0.0178 ± 2.5e-05 mPa·s
298.25 K, 400.8 kPa
  viscosity: 0.0178 ± 2.5e-05 mPa·s
298.25 K, 600.2 kPa
  viscosity: 0.01783 ± 2.5e-05 mPa·s
298.25 K, 1000.1 kPa
  viscosity: 0.01789 ± 2.5e-05 mPa·s
298.25 K, 1500.2 kPa
  viscosity: 0.01799 ± 2.5e-05 mPa·s
323.26 K, 100.6 kPa
  viscosity: 0.0189 ± 3.1e-05 mPa·s
323.26 K, 101.5 kPa
  viscosity: 0.0189 ± 3.1e-05 mPa·s
323.26 K, 200.7 kPa
  viscosity: 0.0189 ± 3.1e-05 mPa·s
323.26 K, 400.4 kPa
  viscosity: 0.01893 ± 3.1e-05 mPa·s
323.26 K, 600.8 kPa
  viscosity: 0.01896 ± 3.1e-05 mPa·s
323.26 K, 800.2 kPa
  viscosity: 0.01896 ± 3.1e-05 mPa·s
323.26 K, 1000.6 kPa
  viscosity: 0.01901 ± 3.1e-05 mPa·s
323.26 K, 1000.9 kPa
  viscosity: 0.01901 ± 3.1e-05 mPa·s
323.27 K, 398.8 kPa
  viscosity: 0.01893 ± 3.1e-05 mPa·s
323.27 K, 1501.9 kPa
  viscosity: 0.01907 ± 3.1e-05 mPa·s
323.27 K, 1802.1 kPa
  viscosity: 0.01913 ± 3.1e-05 mPa·s
373.29 K, 100.8 kPa
  viscosity: 0.02102 ± 3.1e-05 mPa·s
373.29 K, 201.1 kPa
  viscosity: 0.02104 ± 3.1e-05 mPa·s
373.29 K, 401 kPa
  viscosity: 0.02106 ± 3.1e-05 mPa·s
373.29 K, 601 kPa
  viscosity: 0.02107 ± 3.1e-05 mPa·s
373.29 K, 1000.3 kPa
  viscosity: 0.02111 ± 3.1e-05 mPa·s
373.29 K, 1500.6 kPa
  viscosity: 0.02118 ± 3.1e-05 mPa·s
373.29 K, 1807.2 kPa
  viscosity: 0.02122 ± 3.1e-05 mPa·s
423.33 K, 100.9 kPa
  viscosity: 0.02302 ± 3.4e-05 mPa·s
423.33 K, 200.9 kPa
  viscosity: 0.02303 ± 3.4e-05 mPa·s
423.33 K, 400.7 kPa
  viscosity: 0.02306 ± 3.4e-05 mPa·s
423.33 K, 600.6 kPa
  viscosity: 0.02308 ± 3.4e-05 mPa·s
423.33 K, 1000.5 kPa
  viscosity: 0.02311 ± 3.4e-05 mPa·s
423.33 K, 1500.2 kPa
  viscosity: 0.02316 ± 3.4e-05 mPa·s
423.33 K, 1799.4 kPa
  viscosity: 0.02319 ± 3.4e-05 mPa·s
473.38 K, 100.7 kPa
  viscosity: 0.02494 ± 3.6e-05 mPa·s
473.38 K, 200.8 kPa
  viscosity: 0.02495 ± 3.6e-05 mPa·s
473.38 K, 398.5 kPa
  viscosity: 0.02496 ± 3.6e-05 mPa·s
473.38 K, 600.9 kPa
  viscosity: 0.02497 ± 3.6e-05 mPa·s
473.38 K, 1000.7 kPa
  viscosity: 0.02499 ± 3.6e-05 mPa·s
473.38 K, 1500.6 kPa
  viscosity: 0.02503 ± 3.6e-05 mPa·s
473.38 K, 1799.3 kPa
  viscosity: 0.02505 ± 3.6e-05 mPa·s
